Measurements reported in ChEMBL document CHEMBL1132838, “Determination of the relative and absolute stereochemistry of a potent and alpha1A-selective adrenoceptor antagonist” (Bioorg Med Chem Lett, 2000).
pKi: −log10 of the molar value.

Key:
[1] = molecular target: T1, Alpha-1D adrenergic receptor (Homo sapiens, UniProt P25100); experiment: Tested for binding affinity against recombinant human Alpha-1D adrenergic receptor using [125I]-HEAT in competition binding assay
T1 sequence (P25100 whole entry): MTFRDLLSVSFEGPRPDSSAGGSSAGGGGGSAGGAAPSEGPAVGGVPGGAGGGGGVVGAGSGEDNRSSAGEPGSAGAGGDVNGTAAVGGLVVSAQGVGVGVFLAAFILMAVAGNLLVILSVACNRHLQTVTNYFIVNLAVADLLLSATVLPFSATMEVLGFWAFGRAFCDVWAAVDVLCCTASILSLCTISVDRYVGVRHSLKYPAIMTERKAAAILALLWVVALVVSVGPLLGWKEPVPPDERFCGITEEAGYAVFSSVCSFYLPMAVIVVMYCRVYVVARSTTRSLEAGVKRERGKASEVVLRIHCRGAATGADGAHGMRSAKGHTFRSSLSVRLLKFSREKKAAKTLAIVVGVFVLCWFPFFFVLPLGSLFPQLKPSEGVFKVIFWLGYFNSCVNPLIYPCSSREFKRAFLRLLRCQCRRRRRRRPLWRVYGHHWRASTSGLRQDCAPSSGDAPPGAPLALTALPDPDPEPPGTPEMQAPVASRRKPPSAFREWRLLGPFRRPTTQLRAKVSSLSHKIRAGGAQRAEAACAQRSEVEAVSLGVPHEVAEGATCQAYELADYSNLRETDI

[2] = molecular target: T2, Alpha-1B adrenergic receptor (Homo sapiens, UniProt P35368); experiment: Tested for binding affinity against recombinant human Alpha-1B adrenergic receptor using [125I]HEAT in competition binding assay
T2 sequence (P35368 whole entry): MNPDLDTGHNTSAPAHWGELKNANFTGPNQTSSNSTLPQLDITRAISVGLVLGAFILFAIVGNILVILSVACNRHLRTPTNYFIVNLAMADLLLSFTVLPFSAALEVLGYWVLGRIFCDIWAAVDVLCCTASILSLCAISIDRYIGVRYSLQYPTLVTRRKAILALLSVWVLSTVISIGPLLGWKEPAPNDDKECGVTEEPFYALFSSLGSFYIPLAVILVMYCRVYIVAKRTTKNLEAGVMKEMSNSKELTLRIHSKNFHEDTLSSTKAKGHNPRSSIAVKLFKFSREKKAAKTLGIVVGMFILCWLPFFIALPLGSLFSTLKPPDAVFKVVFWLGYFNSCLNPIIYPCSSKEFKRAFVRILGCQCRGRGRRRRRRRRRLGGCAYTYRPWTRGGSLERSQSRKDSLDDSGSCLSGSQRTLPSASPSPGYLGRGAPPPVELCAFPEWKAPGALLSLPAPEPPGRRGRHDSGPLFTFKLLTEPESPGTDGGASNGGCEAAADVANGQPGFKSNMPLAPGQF

Row | pKi [1] | pKi [2] | SMILES
1 | 6.71 | 7.13 | C[C@H]1OC(=O)N(C(=O)NCCCN2CCC(c3ccc(F)cc3)CC2)[C@@H]1c1ccc(F)c(F)c1
2 |  | 7.12 | C[C@@H]1OC(=O)N(C(=O)NCCCN2CCC(c3ccc(F)cc3)CC2)[C@@H]1c1ccc(F)c(F)c1
3 | 7.04 | 7.32 | C[C@H]1OC(=O)N(C(=O)NCCCN2CCC(c3ccc(F)cc3)CC2)[C@H]1c1ccc(F)c(F)c1
